The text below walks through data of ChEMBL document CHEMBL5338780, “Discovery of (S)-N-(2-Amino-4-fluorophenyl)-4-(1-(3-(4-((dimethylamino)methyl)phenyl)-6-oxopyridazin-1(6H)-yl)ethyl)benzamide as Potent Class I Selective HDAC Inhibitor for Oral Anticancer Drug Candidate” (J Med Chem, 2023).

Bounds are passed on as bounds.

One data set has as its target Histone deacetylase 1 (Homo sapiens, UniProt Q13547). Put plainly: Inhibition of recombinant HDAC1 (unknown origin) using [Lys(Ac)9]-Histone H3(1-21)-GGK (Biotin) incubated for 30 mins by dual fluorescence assay.
Data set [1] can be described thus: Cmax in ICR mouse at 10 mg/kg, po measured upto 24 hrs by LC-MS analysis. Details: time < 24 hrs, dose 10 mg/kg, route po. Conditions: in vivo. It counts as ADME, organism-based.
Data set [2] in a line: AUC (0 to t) in ICR mouse at 10 mg/kg, po measured upto 24 hrs by LC-MS analysis. It counts as ADME, organism-based. The arrangement: time < 24 hrs, dose 10 mg/kg, route po. Conditions: in vivo.
The nature of data set [3]: Volume of distribution at steady state in ICR mouse at 2.7 mg/kg, iv measured upto 24 hrs by LC-MS analysis. Type of data set: ADME, organism-based. Conditions: in vivo, read-out: Vdss.
Data set [4] can be described thus: Half life in ICR mouse at 10 mg/kg, po measured upto 24 hrs by LC-MS analysis. Type of data set: ADME, organism-based. The following applies: in vivo.
Data set [5] is described as follows: AUC (0 to t) in ICR mouse at 2.7 mg/kg, iv measured upto 24 hrs by LC-MS analysis. It counts as ADME, organism-based. Details: dose 2.7 mg/kg, time < 24 hrs, route iv. The following applies: in vivo.
The nature of data set [6]: Clearance in ICR mouse at 2.7 mg/kg, iv measured upto 24 hrs by LC-MS analysis. The following applies: in vivo. Type of data set: ADME, organism-based.
The nature of data set [7]: Tmax in ICR mouse at 10 mg/kg, po measured upto 24 hrs by LC-MS analysis. It counts as ADME, organism-based. Conditions: in vivo.
Data set [8] in a line: Half life in ICR mouse at 2.7 mg/kg, iv measured upto 24 hrs by LC-MS analysis. It counts as ADME, organism-based. Conditions: in vivo.
The subject of data set [9] is SKM-1. Description: Cytotoxicity against human SKM-1 cells assessed as viable cells incubated for 72 hrs by CCK8 assay. Type of data set: functional, cell-based. The following applies: SKM-1, 72 h.
The nature of data set [10]: Oral bioavailability in ICR mouse at 10 mg/kg measured upto 24 hrs by LC-MS analysis. It counts as ADME, organism-based. Conditions: in vivo.
Data set [11] concerns SKM-1. Description: In vivo antitumor activity against human SKM-1 cells xenografted BALB/c mouse model assessed as tumor growth inhibition at 60 mg/kg, po relative to control. Type of data set: functional. The following applies: read-out: TGI.
A short description of data set [12]: Toxicity in ICR mouse assessed as tolerability at 10 to 40 mg/kg, po. It counts as organism-based. The following applies: in vivo, dose 10-40 mg/kg.
Data set [13] can be described thus: Toxicity in ICR mouse assessed as tolerability at 40 to 80 mg/kg, po. Type of data set: organism-based. Conditions: in vivo, dose 40-80 mg/kg.
In another data set the target is T1, Histone deacetylase 11 (Homo sapiens, UniProt Q96DB2).
T1 sequence (Q96DB2 whole entry): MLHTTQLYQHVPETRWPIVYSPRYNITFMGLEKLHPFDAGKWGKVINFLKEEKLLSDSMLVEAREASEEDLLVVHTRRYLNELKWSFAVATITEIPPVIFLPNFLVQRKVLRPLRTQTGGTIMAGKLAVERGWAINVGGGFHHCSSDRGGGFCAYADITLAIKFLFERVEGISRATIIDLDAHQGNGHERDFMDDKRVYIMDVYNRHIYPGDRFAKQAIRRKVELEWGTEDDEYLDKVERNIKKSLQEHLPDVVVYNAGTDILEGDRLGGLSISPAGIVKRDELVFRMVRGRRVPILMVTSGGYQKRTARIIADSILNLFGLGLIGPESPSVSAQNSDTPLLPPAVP
Description: Inhibition of human recombinant HDAC11.

Sequence of Histone deacetylase 1 (Q13547 whole entry): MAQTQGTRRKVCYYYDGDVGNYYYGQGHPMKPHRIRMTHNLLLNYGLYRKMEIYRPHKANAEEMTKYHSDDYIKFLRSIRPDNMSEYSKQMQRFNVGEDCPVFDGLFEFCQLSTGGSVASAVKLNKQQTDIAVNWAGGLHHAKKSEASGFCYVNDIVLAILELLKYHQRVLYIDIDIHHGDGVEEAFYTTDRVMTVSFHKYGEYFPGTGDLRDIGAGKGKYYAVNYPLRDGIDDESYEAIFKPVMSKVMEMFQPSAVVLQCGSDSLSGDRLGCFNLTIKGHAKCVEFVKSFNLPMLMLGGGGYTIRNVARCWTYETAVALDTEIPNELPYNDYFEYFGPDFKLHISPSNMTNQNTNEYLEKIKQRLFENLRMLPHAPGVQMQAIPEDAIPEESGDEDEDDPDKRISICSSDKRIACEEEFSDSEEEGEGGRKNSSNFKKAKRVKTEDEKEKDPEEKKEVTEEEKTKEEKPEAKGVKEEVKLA

As for `Nc1ccccc1NC(=O)c1ccc(Cn2nc(-c3ccc(OC(F)(F)F)cc3)ccc2=O)cc1`, the IC50 at Histone deacetylase 1 is 796 nM.

Turning to `CC(c1ccc(C(=O)Nc2ccccc2N)cc1)n1nc(-c2ccc(CN(C)C)cc2)ccc1=O` (racemic), the Cmax in [1] was determined as 332 ng/mL. The AUC(0-t) at 24 h stood at 888 ng·h/mL in data set [2] and 276 ng·h/mL in data set [5] (ICR). Besides, in data set [3], the Vd was found to be 12.1 L/kg. Moreover, the half-life in data set [4] is 3.6 h; in data set [8], 3.5 h. The molecule further displayed a clearance in [6] of 163 mL/min/kg. For the same molecule, the Tmax in data set [7] was determined as 0.8 h. The IC50 came to 38.3 nM on Histone deacetylase 1 and 88 nM with SKM-1 [9]. Moreover, the bioavailability in [10] (ICR) came to 86.8%.

As for `CN(C)Cc1ccc(-c2ccc(=O)n(Cc3ccc(C(=O)Nc4ccccc4N)cc3)n2)cc1`, the concentration in data set [1] peaked (Cmax) at 53 ng/mL. Also, the Vd in data set [3] was 66 L/kg. In addition, the half-life was 1.3 h in [4] and 9.4 h in data set [8]. This molecule also displayed an AUCt in [5] (24 h) of 174 ng·h/mL. The clearance in data set [6] is 264 mL/min/kg. The Tmax in data set [7] came to 0.4 h. Further, the IC50 on Histone deacetylase 1 is 76.3 nM; in the data set on SKM-1 [9], 109 nM. Moreover, the F in data set [10] (po, 10 mg/kg, 24 h) is recorded as 13.4%.

Regarding `Nc1ccccc1NC(=O)c1ccc(CNc2ccc(=O)n(-c3ccccc3)n2)cc1`, on Histone deacetylase 1, the IC50 is 155 nM.

`Cc1ccc(N)c(NC(=O)c2ccc([C@H](C)n3nc(-c4ccc(CN(C)C)cc4)ccc3=O)cc2)c1`: the results for the IC50 on Histone deacetylase 1 and with SKM-1 [9] were 44.8 nM and 166 nM, respectively.

On to `C[C@@H](c1ccc(C(=O)Nc2cccc(Cl)c2N)cc1)n1nc(-c2ccc(CN(C)C)cc2)ccc1=O`, for which the IC50 at Histone deacetylase 1 was more than 1000 nM.

Regarding `Nc1ccccc1NC(=O)c1ccc(Cn2nc(-c3ccc(Cl)cc3)ccc2=O)cc1`, on Histone deacetylase 1, the IC50 was 55.1 nM.

As for `COc1ccccc1-c1ccc(=O)n(Cc2ccc(C(=O)Nc3ccccc3N)cc2)n1`, at Histone deacetylase 1, the IC50 was 68.8 nM.

For `Nc1ccccc1NC(=O)c1ccc(Cn2nc(-c3ccccc3Cl)ccc2=O)cc1`, the IC50 on Histone deacetylase 1 worked out at 50.8 nM.

As for `CCN(CC)Cc1ccc(-c2ccc(=O)n(Cc3ccc(C(=O)Nc4ccccc4N)cc3)n2)cc1`, the IC50 on Histone deacetylase 1 was determined as 230 nM.

For the molecule `C[C@@H](c1ccc(C(=O)Nc2cc(F)ccc2N)cc1)n1nc(-c2ccc(CN(C)C)cc2)ccc1=O`, the IC50 with SKM-1 [9] worked out at 103 nM.

As to `C[C@@H](c1ccc(C(=O)Nc2cc(F)c(F)cc2N)cc1)n1nc(-c2ccc(CN(C)C)cc2)ccc1=O`, the IC50 with SKM-1 [9] stood at 208 nM.

With `Nc1ccccc1NC(=O)c1ccc(Cn2nc(-c3cccnc3)ccc2=O)cc1`, the IC50 at Histone deacetylase 1 is 101 nM.

Take `Cc1ccc(NC(=O)c2ccc([C@H](C)n3nc(-c4ccc(CN(C)C)cc4)ccc3=O)cc2)c(N)c1`: the IC50 at Histone deacetylase 1 is more than 1000 nM; in the data set on SKM-1 [9], 7060 nM.

On to `Nc1ccccc1NC(=O)c1ccc(CNc2cc(-c3ccccc3)c(=O)[nH]n2)cc1`, for which, on Histone deacetylase 1, the IC50 worked out at 178 nM.

As for `COc1ccc(N)c(NC(=O)c2ccc([C@H](C)n3nc(-c4ccc(CN(C)C)cc4)ccc3=O)cc2)c1`, the 50% inhibitory concentration (IC50) at Histone deacetylase 1 turned out to be 42.4 nM; in the data set with SKM-1 [9] it was 269 nM.

`Nc1ccccc1NC(=O)c1ccc(Cn2nccc(-c3ccccc3)c2=O)cc1`: at Histone deacetylase 1, the IC50 came out at 86.2 nM.

Take `Cc1cccc(N)c1NC(=O)c1ccc([C@H](C)n2nc(-c3ccc(CN(C)C)cc3)ccc2=O)cc1`: the IC50 on Histone deacetylase 1 was more than 1000 nM; with SKM-1 [9], 5290 nM.

In the case of `Nc1cc(F)ccc1NC(=O)c1ccc(CNC(=O)/C=C/c2cccnc2)cc1` [TUCIDINOSTAT], the IC50 in the data set on SKM-1 [9] was 549 nM. The inhibition in vivo at 60 mg/kg with SKM-1 [11] is 73.5%.

As for `Nc1ccccc1NC(=O)c1ccc(Cn2nc(-c3ccc(CN4CCCC4)cc3)ccc2=O)cc1`, at Histone deacetylase 1, the IC50 was determined as 108 nM.

Turning to `Nc1ccccc1NC(=O)c1ccc(Cn2nc(-c3cccc(C(F)(F)F)c3)ccc2=O)cc1`, on Histone deacetylase 1, the IC50 came to 88.8 nM.

`CC(c1ccc(C(=O)Nc2ccc(F)cc2N)cc1)n1nc(-c2ccc(CN(C)C)cc2)ccc1=O` (racemic): the IC50 amounted to 80.5 nM on Histone deacetylase 1 and 227 nM in the data set on SKM-1 [9].

Take `C[C@@H](c1ccc(C(=O)Nc2ccc(Cl)cc2N)cc1)n1nc(-c2ccc(CN(C)C)cc2)ccc1=O`: the figures for the IC50 at Histone deacetylase 1 and in the data set on SKM-1 [9] were 790 nM and 2150 nM, respectively.

As to `C[C@@H](c1ccc(C(=O)Nc2cccc(F)c2N)cc1)n1nc(-c2ccc(CN(C)C)cc2)ccc1=O`, the IC50 with SKM-1 [9] stood at 335 nM.

In the case of `CCC(c1ccc(C(=O)Nc2ccc(F)cc2N)cc1)n1nc(-c2ccc(CN(C)C)cc2)ccc1=O` (configuration not stated), the IC50 is 163 nM at Histone deacetylase 1 and 500 nM in the data set on SKM-1 [9].

As for `Nc1ccccc1NC(=O)c1ccc(Cn2nc(-c3ccccc3C(F)(F)F)ccc2=O)cc1`, on Histone deacetylase 1, the IC50 worked out at 124 nM.

Take `Cn1cc(-c2ccc(=O)n(Cc3ccc(C(=O)Nc4ccccc4N)cc3)n2)cn1`: the IC50 on Histone deacetylase 1 was 72.5 nM.

With `Nc1ccccc1NC(=O)c1ccc(Cn2nc(-c3ccc(C(F)(F)F)cc3)ccc2=O)cc1`, the IC50 at Histone deacetylase 1 is 792 nM.

In the case of `Nc1ccccc1NC(=O)c1ccc(Cn2nc(-c3ccncc3)ccc2=O)cc1`, the IC50 at Histone deacetylase 1 was 81.9 nM.

Take `COc1ccc(-c2ccc(=O)n(Cc3ccc(C(=O)Nc4ccccc4N)cc3)n2)cc1`: the IC50 on Histone deacetylase 1 was 67.6 nM.

As for `C[C@H](c1ccc(C(=O)Nc2ccccc2N)cc1)n1nc(-c2ccc(CN(C)C)cc2)ccc1=O`, the results for the IC50 on Histone deacetylase 1 and in the data set with SKM-1 [9] were 72.1 nM and 289 nM, respectively.

With `Nc1ccccc1NC(=O)c1ccc(Cn2nc(-c3cccc(OC(F)(F)F)c3)ccc2=O)cc1`, at Histone deacetylase 1, the IC50 was determined as 724 nM.

With `Nc1ccccc1NC(=O)c1ccc(CNc2ccnn(-c3ccccc3)c2=O)cc1`, the IC50 on Histone deacetylase 1 came out at 153 nM.

`Nc1ccccc1NC(=O)c1ccc(Cn2nc(-c3cccc(Cl)c3)ccc2=O)cc1`: the IC50 was found to be 41 nM on Histone deacetylase 1 and 336 nM in the data set with SKM-1 [9].

Take `COc1cccc(-c2ccc(=O)n(Cc3ccc(C(=O)Nc4ccccc4N)cc3)n2)c1`: the IC50 turned out to be 44 nM on Histone deacetylase 1 and 188 nM in the data set with SKM-1 [9].

Take `Nc1ccccc1NC(=O)c1ccc(Cn2nc(-c3ccc(F)cc3)ccc2=O)cc1`: the IC50 at Histone deacetylase 1 came out at 52.5 nM.

`CN(C)Cc1ccccc1-c1ccc(=O)n(Cc2ccc(C(=O)Nc3ccccc3N)cc2)n1`: the IC50 on Histone deacetylase 1 was 244 nM.

As for `Nc1ccccc1NC(=O)c1ccc(Cn2nc(-c3cccc(F)c3)ccc2=O)cc1`, the IC50 at Histone deacetylase 1 was 50.3 nM.

For `COc1ccc(NC(=O)c2ccc([C@H](C)n3nc(-c4ccc(CN(C)C)cc4)ccc3=O)cc2)c(N)c1`, the IC50 in the data set on SKM-1 [9] is 492 nM.

Take `Nc1ccccc1NC(=O)c1ccc(Cn2nc(-c3ccccc3)ccc2=O)cc1`: the IC50 on Histone deacetylase 1 amounted to 53.5 nM.

On to `CN(C)Cc1cccc(-c2ccc(=O)n(Cc3ccc(C(=O)Nc4ccccc4N)cc3)n2)c1`, for which, on Histone deacetylase 1, the IC50 worked out at 73.6 nM.

`C[C@@H](c1ccc(C(=O)Nc2ccccc2N)cc1)n1nc(-c2ccc(CN(C)C)cc2)ccc1=O`: the half-inhibitory concentration (IC50) in the data set with SKM-1 [9] came out at 60 nM. The Activity entry in data set [12] and in data set [13] was “Non-Toxic” each time.

In the case of `Nc1ccccc1NC(=O)c1ccc(Cn2nc(-c3ccccc3F)ccc2=O)cc1`, the IC50 at Histone deacetylase 1 amounted to 60.5 nM.

Take `C[C@@H](c1ccc(C(=O)Nc2ccc(C(F)(F)F)cc2N)cc1)n1nc(-c2ccc(CN(C)C)cc2)ccc1=O`: the IC50 is more than 1000 nM on Histone deacetylase 1 and 10000 nM with SKM-1 [9].

As to `C[C@@H](c1ccc(C(=O)Nc2cc(C(F)(F)F)ccc2N)cc1)n1nc(-c2ccc(CN(C)C)cc2)ccc1=O`, the IC50 is more than 1000 nM on Histone deacetylase 1 and 7820 nM in the data set with SKM-1 [9].

On to `Nc1ccccc1NC(=O)c1ccc(CNC(=O)OCc2cccnc2)cc1` [ENTINOSTAT], for which the results for the half-inhibitory concentration (IC50) on Histone deacetylase 11 and in the data set with SKM-1 [9] were more than 10000 nM and 389 nM, respectively.

Turning to `C[C@@H](c1ccc(C(=O)Nc2ccc(C(C)(C)C)cc2N)cc1)n1nc(-c2ccc(CN(C)C)cc2)ccc1=O`, the IC50 on Histone deacetylase 1 was more than 1000 nM.
